Measured values as given in patent publication EP2057185B1, “POLYMYXIN DERIVATIVES AND USES THEREOF” (Northern Antibiotics Oy, priority 2006, dated 2008).
Bridge positions count the residues as written; N and C are the ends. Square brackets hold non-standard residues; d marks the D form. Peptide text beside a SMILES is read from it. * marks the point of attachment. Octanoyl = CCCCCCCC(=O)*; Dab = NCC[C@H](N)C(=O)O; Abu = CC[C@H](N)C(=O)O

Experiments:
[1] = tested on: Ps. aeruginosa ATCC 27853; test: Growth inhibition around wells on LB plates containing rifampin (sensitization); type: cell-based, Pseudomonas aeruginosa; settings: well containing 4 µg
[2] = tested on: carbapenem-resistant strains (F263, F264); test: E-strip MIC of carbapenems, summary over resistant strains; type: cell-based, Acinetobacter baumannii; settings: NAB7061 4 µg/ml
Method: (§1) MICs were determined by using E-strips (Biodisk Ltd., Solna, Sweden) according to the manufacturer's instructions.

[3] = tested on: all strains (17) belonging to the group consisting of E. coli, K. oxytoca, E. cloacae, and C. freundii; test: E-strip MIC, summary over 17 strains of Example 8; type: cell-based
Method: as §1
(§2) The strains originated from ATCC (11 strains), CCUG (11 strains), and NCTC (The National Collection of Type Cultures, Colindale, U.K.; 2 strains). Eight strains (the F-strains) were purchased from Mobidiag Ltd., Helsinki, Finland.

P. mirabilis ATCC29906 [4] = test: MIC by E-strips on Mueller-Hinton agar with or without NAB7061 (4 µg/ml); type: cell-based, Proteus mirabilis
Method: as §1, §2

A. baumannii ATCC 19606 = test: Growth inhibition around wells on LB plates containing rifampin (sensitization); type: cell-based, Acinetobacter baumannii; settings: well containing 4 µg
E. coli NCTC13351 = test: MIC by E-strips on Mueller-Hinton agar with or without NAB7061 (4 µg/ml); type: cell-based, Escherichia coli
Method: as §1, §2

E. coli CCUG41424 = test: as above; type: cell-based, Escherichia coli
Method: as §1, §2

E. coli CCUG41432 = test: as above; type: cell-based, Escherichia coli
Method: as §1, §2

S. marcescens ATCC8100 [5] = test: as above; type: cell-based, Serratia marcescens
Method: as §1, §2

Ac. baumannii F263 = test: as above; type: cell-based, Acinetobacter baumannii
Method: as §1, §2

Ac. baumannii ATCC19606 = test: as above; type: cell-based, Acinetobacter baumannii
Method: as §1, §2

P. vulgaris ATCC13315 = test: as above; type: cell-based
Method: as §1, §2

S. maltophilia ATCC17444 = test: as above; type: cell-based
Method: as §1, §2

E. coli ATCC25922 [6] = tested on: E. coli ATCC25922
Method: as §1, §2

E. coli IH3080 (O18:K1) = test: Synergistic bactericidal activity with guinea pig serum (complement); type: cell-based, Escherichia coli; settings: none (PBS)
E. coli ATCC25922 [7] = test: Growth inhibition around wells on LB agar plates; type: cell-based, Escherichia coli; settings: growth inhibition area around well
Method: (§3) From an overnight-grown culture of IH3080 on LB agar, a suspension of approx. 10^8 cells/ml was prepared in 0.9% NaCl. Aliquots of this suspension were then pipetted on the agar plates and the plates were gently shaken to spread the suspension evenly on the entire surface of the plate. Thereafter, the unabsorbed part of the suspension was removed by using a Pasteur pipette. After the surface had dried, small wells (diameter, 2 mm) were drilled on the plates (five wells per plate) by using a sterile sharp-edged narrow metal tube, single-use pipette tip, and vacuum suction. Samples (4 µl and 10 µl) of the peptide solution in 0.9% NaCl (at concentrations of 1 µg/ml and 0.1 µg/ml) were then pipetted to the wells and the sample fluids were allowed to absorb. Controls included 0.9% NaCl solution without the compound to be tested. The plates were then incubated for 18 h at 37°C whereafter the diameters of growth inhibition zones around each well were measured; the diameter of the well itself was […]. Finally, the diameters were converted to surface areas of growth inhibition (in square mm).
(§4) The susceptibility of eleven Gram-negative bacterial strains (nine different species) to NAB734 and polymyxin B was compared by using the susceptibility determination method described in Example 2. […]

P. mirabilis ATCC29906 [8] = test: Growth inhibition around wells on LB agar plates; type: cell-based, Proteus mirabilis; settings: growth inhibition area around well
Method: as §3, §4

K. oxytoca ATCC 13182 = test: Growth inhibition around wells on LB agar plates; type: cell-based, Klebsiella oxytoca; settings: growth inhibition area around well
Method: as §3, §4

S. marcescens ATCC8100 [9] = test: Growth inhibition around wells on LB agar plates; type: cell-based, Serratia marcescens; settings: growth inhibition area around well
Method: as §3, §4

K. pneumoniae CCUG45421 = test: Growth inhibition around wells on LB agar plates; type: cell-based, Klebsiella pneumoniae; settings: growth inhibition area around well
Method: as §3
(§5) The susceptibility of eleven Gram-negative bacterial strains (nine different species) to NAB734 and polymyxin B was compared by using the susceptibility determination method described in Example 2. The strains included those belonging to the species of Serratia marcescens and Proteus mirabilis, both species generally known to be resistant to polymyxin. Furthermore, the susceptibility determination was also performed by using the Gram-positive bacterium, Staphylococcus aureus, also generally known to be polymyxin-resistant. Ten of the strains originated from ATCC (American Type Culture Collection, Manassas, VA, U.S.A.), and one from CCUG (Culture Collection of University of Gothenburg, Sweden). The source of E. coli IH3080 has been described in Example 2. Polymyxin B sulfate was from Sigma-Aldrich (St. Louis, MO, USA).

K. pneumoniae ATCC13883 = test: Growth inhibition around wells on LB agar plates; type: cell-based, Klebsiella pneumoniae; settings: growth inhibition area around well
Method: as §3, §5

Compound: CCCCCCCC(=O)N[C@H](C(=O)N[C@@H](CC)C(=O)N[C@H]1CCNC(=O)[C@H]([C@@H](C)O)NC(=O)[C@H](CCN)NC(=O)[C@H](CCN)NC(=O)[C@H](CC(C)C)NC(=O)[C@@H](Cc2ccccc2)NC(=O)[C@H](CCN)NC1=O)[C@@H](C)O [NAB 7061, OA-Thr-Abu-cy[Dab-Dab-DPhe-Leu-Dab-Dab-Thr-]] (Octanoyl-T[Abu][Dab][Dab][dF]L[Dab][Dab]T; lactam 3-C)
- Antibacterial activity, rifampin 0 ([1]; no rifampin (control)): 0 square millimeters
- Antibacterial activity, rifampin 0.1 ([1]; rifampin 0.1 µg/ml): 0 square millimeters
- Antibacterial activity, rifampin 0.3 ([1]; rifampin 0.3 µg/ml): 0 square millimeters
- sensitization factor to both carbapenems (imipenem, meropenem) [2]: ≥ 4
- MIC of rifampin in the presence of NAB7061 (4 µg/ml) [3]: ≤ 0.125 µg/mL
- MIC (µg/ml) of rifampin in the presence of 4 µg/ml of NAB 7061 (P. mirabilis ATCC29906 [4]): 1 to 6 µg/mL
- Sensitization factor to clarithromycin (P. mirabilis ATCC29906 [4]; 4 µg/ml of NAB 7061): <2
- Sensitization factor to rifampin (P. mirabilis ATCC29906 [4]; 4 µg/ml of NAB 7061): <2
- Antibacterial activity, rifampin 0 (A. baumannii ATCC 19606; no rifampin (control)): 0 square millimeters
- Antibacterial activity, rifampin 0.1 (A. baumannii ATCC 19606; rifampin 0.1 µg/ml): 28 square millimeters
- Antibacterial activity, rifampin 0.3 (A. baumannii ATCC 19606; rifampin 0.3 µg/ml): 50 square millimeters
- Sensitization factor to clarithromycin (S. marcescens ATCC8100 [5]; 4 µg/ml of NAB 7061): <2
- Sensitization factor to rifampin (S. marcescens ATCC8100 [5]; 4 µg/ml of NAB 7061): <2
- MIC (µg/ml) of rifampin in the presence of 4 µg/ml of NAB 7061 (P. vulgaris ATCC13315): 1-1,5 µg/ml
- Sensitization factor to clarithromycin (P. vulgaris ATCC13315; 4 µg/ml of NAB 7061): <2
- Sensitization factor to rifampin (P. vulgaris ATCC13315; 4 µg/ml of NAB 7061): <2
- MIC (µg/ml) of clarithromycin in the presence of 4 µg/ml of NAB 7061 (E. coli ATCC25922 [6]): 0,094 - 0,125 µg/ml
- MIC (µg/ml) of rifampin in the presence of 4 µg/ml of NAB 7061 (E. coli ATCC25922 [6]): 0,01 - 0,047 µg/ml
- % survival after 2-hour treatment at 37°C (E. coli IH3080 (O18:K1); NAB7061 1 µg/ml): 97%
- % survival after 2-hour treatment at 37°C (E. coli IH3080 (O18:K1); NAB7061 2 µg/ml): 97%
- % survival after 2-hour treatment at 37°C (E. coli IH3080 (O18:K1); NAB7061 4 µg/ml): 79%

Compound: Polymyxin B
- Antibacterial activity 4 µg (E. coli ATCC25922 [7]; 4 µg): 95 square millimeters
- Antibacterial activity 10 µg (E. coli ATCC25922 [7]; 10 µg): 133 square millimeters
- Antibacterial activity 4 µg (P. mirabilis ATCC29906 [8]; 4 µg): 0 square millimeters
- Antibacterial activity 10 µg (P. mirabilis ATCC29906 [8]; 10 µg): 0 square millimeters
- Antibacterial activity 4 µg (K. oxytoca ATCC 13182; 4 µg): 79 square millimeters
- Antibacterial activity 10 µg (K. oxytoca ATCC 13182; 10 µg): 104 square millimeters
- Antibacterial activity 4 µg (S. marcescens ATCC8100 [9]; 4 µg): 0 square millimeters
- Antibacterial activity 10 µg (S. marcescens ATCC8100 [9]; 10 µg): 0 square millimeters
- Antibacterial activity 4 µg (K. pneumoniae CCUG45421; 4 µg): 95 square millimeters
- Antibacterial activity 10 µg (K. pneumoniae CCUG45421; 10 µg): 133 square millimeters
- Antibacterial activity 4 µg (K. pneumoniae ATCC13883; 4 µg): 79 square millimeters
- Antibacterial activity 10 µg (K. pneumoniae ATCC13883; 10 µg): 113 square millimeters
